The values that follow come from ChEMBL document CHEMBL4190382, “Targeting lysine specific demethylase 4A (KDM4A) tandem TUDOR domain - A fragment based approach” (Bioorg Med Chem Lett, 2018).

Activity calls are given as the source filed them. No cut-off for these calls is given here. Square brackets hold non-standard residues; d marks the D form. Peptide text beside a SMILES is read from it. Lys(Me3) = C[N+](C)(C)CCCC[C@H](N)C(=O)O

Test [1] has as its target T1, Lysine-specific demethylase 4A (Homo sapiens, UniProt O75164).
T1 sequence (O75164 whole entry): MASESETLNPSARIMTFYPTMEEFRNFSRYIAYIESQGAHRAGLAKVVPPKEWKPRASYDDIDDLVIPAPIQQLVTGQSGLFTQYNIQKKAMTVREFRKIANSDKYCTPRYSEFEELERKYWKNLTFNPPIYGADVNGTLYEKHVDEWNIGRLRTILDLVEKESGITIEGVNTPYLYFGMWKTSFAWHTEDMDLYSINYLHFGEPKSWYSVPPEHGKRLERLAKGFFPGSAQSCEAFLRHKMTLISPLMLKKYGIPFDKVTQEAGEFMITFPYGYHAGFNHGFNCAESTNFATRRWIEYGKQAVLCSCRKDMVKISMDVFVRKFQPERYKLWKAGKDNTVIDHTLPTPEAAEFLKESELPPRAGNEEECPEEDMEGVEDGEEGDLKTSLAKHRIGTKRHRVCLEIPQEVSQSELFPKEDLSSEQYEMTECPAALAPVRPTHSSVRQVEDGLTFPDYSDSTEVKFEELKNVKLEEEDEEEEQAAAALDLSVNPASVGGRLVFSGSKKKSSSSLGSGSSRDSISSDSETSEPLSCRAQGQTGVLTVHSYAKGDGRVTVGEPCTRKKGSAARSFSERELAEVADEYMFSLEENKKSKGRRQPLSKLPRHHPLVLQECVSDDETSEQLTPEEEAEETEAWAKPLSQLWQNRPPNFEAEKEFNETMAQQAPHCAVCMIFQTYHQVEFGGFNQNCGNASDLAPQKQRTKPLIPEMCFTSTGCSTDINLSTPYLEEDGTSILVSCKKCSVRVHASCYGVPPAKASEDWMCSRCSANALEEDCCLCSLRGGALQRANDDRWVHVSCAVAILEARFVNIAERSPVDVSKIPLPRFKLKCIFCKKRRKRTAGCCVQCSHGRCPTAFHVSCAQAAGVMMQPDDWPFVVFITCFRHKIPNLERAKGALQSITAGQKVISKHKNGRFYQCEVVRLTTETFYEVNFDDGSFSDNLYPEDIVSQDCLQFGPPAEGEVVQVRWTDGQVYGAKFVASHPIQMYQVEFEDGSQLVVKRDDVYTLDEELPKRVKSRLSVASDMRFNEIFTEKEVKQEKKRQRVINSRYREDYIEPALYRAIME
Briefly: (§1) Binding affinity to thrombin cleavable N-terminal 6His-tagged and 13C-IVLM labeled human KDM4A tandem TUDOR domain (897 to 1011 residues) expressed in Escherichia coli BL21(DE3)-T1R at 1 mM by 13C HSQC NMR spectroscopy.

Test [2] deals with T1, Lysine-specific demethylase 4A. Briefly: Inhibition of NanoLuc-KDM4A-TUDOR domain (unknown origin) binding to Histone H3.3-HaloTag expressed in 293T cells incubated for 18 hrs by Nano-BRET based target engagement assay. The class given is cell-based.
The target is the same in test [3]. Briefly: Binding affinity to thrombin cleavable N-terminal 6His tagged and 13C-IVLM labeled human KDM4A tandem TUDOR domain (897 to 1011 residues) expressed in Escherichia coli BL21(DE3)-T1R by ITC method.
The target of test [4] is T2, Lysine-specific demethylase 4A (Homo sapiens) (UniProt O75164).
T2 sequence (whole entry): T1 sequence (O75164 whole entry)
Described as §1.

One may read the Kd as the equilibrium constant for the complex coming apart. A higher Kd goes with weaker binding. As to `CN(C)CC1C2CCC(c3ccccc3)(C2)C1O` (stereo not given), in test [1], binding was characterised by a dissociation constant (Kd) of 80 µM.

The term EC50 denotes the concentration giving half of the maximal effect. High values mean lower potency in that assay, low ones higher potency in that assay. As for `CN(C)C[C@@H]1C2CCC(c3ccccc3)(C2)[C@@H]1O` (stereo not given in full), the EC50 in test [2] came to 1220 µM.

Take `CC(C)C[C@H](NC(=O)[C@@H](NC(=O)[C@H](CCCC[N+](C)(C)C)NC(=O)[C@H](CCCNC(=N)N)NC(=O)[C@H](Cc1cnc[nH]1)NC(=O)[C@H](CCCNC(=N)N)NC(=O)[C@@H](N)CCCCN)C(C)C)C(=O)N[C@@H](CCCNC(=N)N)C(=O)N[C@@H](CC(=O)O)C(=O)N[C@@H](CC(N)=O)C(=O)O` (H-KRHR[Lys(Me3)]VLRDN-OH): the Kd in test [3] is 4.7 µM.

With `C[C@H](N)C(=O)N[C@@H](CCCNC(=N)N)C(=O)N[C@H](C(=O)N[C@@H](CCCC[N+](C)(C)C)C(=O)N[C@@H](CCC(N)=O)C(=O)N[C@H](C(=O)N[C@@H](C)C(=O)N[C@@H](CCCNC(=N)N)C(=O)N[C@@H](CCCCN)C(=O)N[C@@H](CO)C(=O)O)[C@@H](C)O)[C@@H](C)O`, in test [4], the outcome was Active. Besides, binding in test [3] was put at a Kd of 3 µM.
